In assay [1] the test system is Dunkin-Hartley guinea pigs. The assay is described as follows: Inflammatory cell infiltration in BALF of LPS-treated guinea pig model of COPD. In kind it is in vivo. The note with it: nebulised 3 micromolar, 30 min before LPS. How it is done:
FIG. 15. The calcilytic NPS89636 reduces inflammatory cell infiltration detected in the bronchioalveolar lavage fluid (BALF) from guinea pigs with LPS-induced COPD. Male Dunkin-Hartley guinea pigs (500-550 g) were exposed to 30 micrograms/ml of nebulized lipopolysaccharide (LPS) in saline for 1 hour on alternate days for nine exposures. Animals received nebulised 3 micromolar NPS89636 (or 0.3% DMSO vehicle) for 9 days starting after exposure 5 for 30 min, 30 min before LPS exposure every other day. Animals were killed 24 hours after the ninth exposure (1.5 mL of Euthatal IP) and BALF was collected and cells were counted the same day as described in FIG. 14. Data are presented as mean±S.E.M. Significant differences between vehicle and calcilytic are indicated, p<0.05, n=6. […] For the total cell counts 100 microliters of the concentrated BALF from OVA-sensitised mice or 100 microliters of the diluted BALF from guinea pigs were applied to the Cytospin 3 Shandon cell smearing system (using glass slides from Thermo Scientific (BS7011/2; 0.8-1 mm, 76×26 mm) and filter paper from Thermo Scientific (5991022; Shandon filter cards) at 1000 rt/min for 7 minutes. The slides then were immersed into 1.5% […] stain in methanol for 6 min, then briefly washed in water twice. The slides were allowed to dry overnight, and the cells were counted using 100× oil immersion objective.

Assay [2] has as its system BalbC mice. The assay is described as follows: Inflammatory cell infiltration in BALF of OVA-sensitised mice. In kind it is in vivo, mouse. The note with it: nebulised 3 micromolar. The protocol:
FIG. 14. The calcilytic NPS89636 reduces inflammatory cell infiltration detected in the bronchioalveolar lavage fluid (BALF) from mice sensitized with OVA. 24 hours following the OVA sensitisation and nebulisation protocol described in detail in FIG. 13 in the presence of NS89636 (3 micromolar) or vehicle (0.3% DMSO), mice were killed and the BALF was collected by lavage. Cells from BALF were counted the same day using a haematocytometer. For differential cell count, BALF was concentrated by centrifugation 10 times, 100 microliters of the final solution was applied to a Cytospin 3 Shandon cell smearing system. The slides then were submerged into 1.5% Leisman stain in methanol for 6 min, then briefly washed in water twice, allowed to dry overnight, and the cells counted using 100× oil immersion objective. Data are presented as mean±S.E.M. Significant differences between vehicle and calcilytic are indicated, p<0.05, n=11.
Effect of the Calcilytic NPS 89636 on Inflammatory Cell Infiltration in the BALF of OVA-Sensitised Mice and LPS-Treated Guinea Pigs.
For the asthma model, OVA-sensitized mice were killed by a lethal overdose of sodium pentobarbitone (Euthatal), then using a cannula 1 ml of PBS was instilled into the lungs via an incision in the trachea. […]

Take `CCc1ccc(CC(C)(C)NCC(O)COc2cc(-c3ccc(C(=O)O)cc3)ccc2C#N)c(F)c1.Cl` (stereo in doubt) [NPS89636, (S)-4′-cyano-3′-[3-[2-(4-ethyl-2-fluorophenyl)-1,1-dimethylethylamino]-2-hydroxy-propoxy]-biphenyl-4-carboxylic acid hydrochloride]: the “Effect on inflammatory cell infiltration (BALF), LPS-treated guinea pig” value in assay [1] was “a reduction in the inflammatory cell infiltration, especially of lymphocytes and neutrophils”. Further, the “Effect on OVA-evoked inflammatory cell infiltration into the lung (BALF)” value in assay [2] is “reduced”.

(Values after patent US9861606B2, “Therapeutic for treating inflammatory lung disorders” (University College Cardiff Consultants Limited, priority 2012, dated 2018).)
